US9758526B2, “Quinoline-substituted compound” (TAIHO PHARMACEUTICAL CO., LTD., priority 2013, dated 2017)
pIC50: −log10 of the molar value.

Experiments:
[1] = biological target: T1, EGFR (d746-750) (Homo sapiens, UniProt P00533, DEL746-750); assay: EGFR (d746-750) kinase inhibitory activity; format: biochemical; settings: ATP 5 μM, kinase reaction 90 minutes
T1 construct: purchased Carna Biosciences, Inc
Method: (§1) Among the materials of the inhibitory activity measurement, the substrate peptide and the kinase protein were obtained as follows. A peptide with biotinylated N-terminus (biotin-EEPLYWSFPAKKK) was synthesized with reference to FL-Peptide 22, a reagent for LabChip® series of PerkinElmer, Inc. For the kinase protein, a purified recombinant human EGFR (T790M/L858R) protein of Carna Biosciences, Inc. was purchased.
(§2) The inhibitory activity measurement was performed as follows. The compounds of the present invention were individually dissolved in dimethyl sulfoxide (DMSO), and serial dilutions of these compounds were prepared using DMSO. Subsequently, a solution containing the substrate peptide (final concentration: 250 nM), magnesium chloride (final concentration: 10 mM), manganese chloride (final concentration: 10 mM), and ATP (final concentration: 1 μM) in a buffer solution for kinase reaction (Carna Biosciences, Inc.) was mixed with the dilutions of the compounds (final concentration of DMSO upon kinase reaction: 2.5%) or DMSO (final concentration: 2.5%). EGFR (T790M/L858R) protein was further added thereto, and the mixtures were incubated at 25° C. for 120 minutes to carry out a kinase reaction. EDTA was added thereto to a final concentration of 24 mM to thereby terminate the reaction. A phosphorylated thyrosine detection solution containing europium (Eu)-labeled anti-phosphorylated tyrosine antibody PT66 (PerkinElmer, Inc.) and SureLight APC-SA (PerkinElmer, Inc.) was added to the reaction mixtures, and the mixtures were allowed to stand at room temperature for 2 hours or more. For the background, a sample to which EDTA was added before addition of EGFR (T790M/L858R) protein was incubated at 25° C. for 120 minutes, using DMSO instead of the DMSO solution of the compound. The detection solution was also added to this sample, and the mixture was allowed to stand for 2 hours or more. Finally, for all of the test samples, the amount of fluorescence at the time of irradiation of excitation light having a wavelength of 337 nm was measured at dual wavelengths of 620 nm and 665 nm by PHERAstar FS (BMG LABTECH), and a ratio of the fluorescence amounts at the two wavelengths was obtained as data.
(§3) Based on the above rates, phosphorylation inhibition rates (%) were calculated for the samples to which various concentrations of the compound solutions were added. Finally, the obtained reaction inhibition rates (%) at the respective concentrations were plotted for each compound, and the IC50 value (nM), which is a compound concentration at which phosphorylation by EGFR (T790M/L858R) is inhibited by 50%, was determined using XLfit curve-fitting software (IDBS).
The inhibitory activities of the compounds of the present invention against EGFR (d746-750) kinase activity were measured.
The materials, the measurement method, and the data analysis method were substantially the same as those shown in the above description regarding “Measurement of EGFR (T790M/L858R) Kinase Inhibitory Activity,” except that a purified recombinant human EGFR (d746-750) protein purchased from Carna Biosciences, Inc. was used as the kinase protein, the measurement was performed with ATP at a final concentration of 5 μM, and the incubation for the kinase reaction was performed for 90 minutes. Finally, the IC50 value (nM) of each compound with respect to EGFR (d746-750) was determined by data analysis.

[2] = biological target: T2, EGFR (L858R) (Homo sapiens, UniProt P00533, L858R); assay: EGFR (L858R) kinase inhibitory activity; format: biochemical; settings: ATP 4 μM
T2 construct: purchased Carna Biosciences, Inc
T2 sequence (P00533 25-1210 L858R): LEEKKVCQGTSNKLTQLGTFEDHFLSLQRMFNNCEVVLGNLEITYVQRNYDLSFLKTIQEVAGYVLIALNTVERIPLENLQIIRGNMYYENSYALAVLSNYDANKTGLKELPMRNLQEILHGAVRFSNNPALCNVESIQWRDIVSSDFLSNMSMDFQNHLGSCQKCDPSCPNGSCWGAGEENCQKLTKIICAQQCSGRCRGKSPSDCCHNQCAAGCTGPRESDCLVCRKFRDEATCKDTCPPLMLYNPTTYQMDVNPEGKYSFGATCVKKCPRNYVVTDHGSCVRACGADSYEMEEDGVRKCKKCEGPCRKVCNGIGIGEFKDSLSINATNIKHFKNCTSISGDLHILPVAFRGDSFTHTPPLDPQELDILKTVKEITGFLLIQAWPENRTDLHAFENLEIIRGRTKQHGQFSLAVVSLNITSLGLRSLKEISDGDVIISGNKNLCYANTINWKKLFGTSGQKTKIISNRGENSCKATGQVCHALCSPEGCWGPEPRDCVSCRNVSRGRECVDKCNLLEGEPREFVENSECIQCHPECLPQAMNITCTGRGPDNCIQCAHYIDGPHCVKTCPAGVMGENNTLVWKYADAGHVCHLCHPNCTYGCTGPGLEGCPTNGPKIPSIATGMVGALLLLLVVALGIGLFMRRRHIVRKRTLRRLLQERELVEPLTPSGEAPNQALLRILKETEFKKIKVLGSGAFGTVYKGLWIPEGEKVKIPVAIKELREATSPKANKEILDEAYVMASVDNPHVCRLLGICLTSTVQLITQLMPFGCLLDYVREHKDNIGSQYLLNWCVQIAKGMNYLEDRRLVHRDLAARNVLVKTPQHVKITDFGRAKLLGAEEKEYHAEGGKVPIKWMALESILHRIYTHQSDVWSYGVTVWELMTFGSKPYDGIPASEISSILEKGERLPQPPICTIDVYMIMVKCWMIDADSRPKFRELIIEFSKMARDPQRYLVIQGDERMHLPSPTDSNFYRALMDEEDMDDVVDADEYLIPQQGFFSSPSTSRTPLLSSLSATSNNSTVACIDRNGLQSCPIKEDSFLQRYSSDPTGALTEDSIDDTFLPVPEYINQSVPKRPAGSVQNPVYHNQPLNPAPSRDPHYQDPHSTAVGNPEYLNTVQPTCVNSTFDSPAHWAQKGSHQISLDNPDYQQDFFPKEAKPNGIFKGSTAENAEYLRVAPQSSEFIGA
Method: as §1, §2, §3
The inhibitory activities of the compounds of the present invention against EGFR (L858R) kinase activity were measured.
The materials, the measurement method, and the data analysis method were substantially the same as those shown in the above description regarding “Measurement of EGFR (T790M/L858R) Kinase Inhibitory Activity,” except that a purified recombinant human EGFR (L858R) protein purchased from Carna Biosciences, Inc. was used as the kinase protein, and the measurement was performed with ATP at a final concentration of 4 μM. Finally, the IC50 value (nM) of each compound with respect to EGFR (L858R) was determined by data analysis.

[3] = biological target: T3, EGFR (WT) (Homo sapiens, UniProt P00533); assay: EGFR (WT) kinase inhibitory activity; format: biochemical; settings: substrate peptide 500 nM
T3 construct: expressing a cytoplasmic domain of human EGFR (WT) with its N-terminus fused to a FLAG tag; FLAG (N); made in house; host or cells: insect Sf9 cells, baculovirus expression system
T3 sequence (P00533 669-1210 limits assumed): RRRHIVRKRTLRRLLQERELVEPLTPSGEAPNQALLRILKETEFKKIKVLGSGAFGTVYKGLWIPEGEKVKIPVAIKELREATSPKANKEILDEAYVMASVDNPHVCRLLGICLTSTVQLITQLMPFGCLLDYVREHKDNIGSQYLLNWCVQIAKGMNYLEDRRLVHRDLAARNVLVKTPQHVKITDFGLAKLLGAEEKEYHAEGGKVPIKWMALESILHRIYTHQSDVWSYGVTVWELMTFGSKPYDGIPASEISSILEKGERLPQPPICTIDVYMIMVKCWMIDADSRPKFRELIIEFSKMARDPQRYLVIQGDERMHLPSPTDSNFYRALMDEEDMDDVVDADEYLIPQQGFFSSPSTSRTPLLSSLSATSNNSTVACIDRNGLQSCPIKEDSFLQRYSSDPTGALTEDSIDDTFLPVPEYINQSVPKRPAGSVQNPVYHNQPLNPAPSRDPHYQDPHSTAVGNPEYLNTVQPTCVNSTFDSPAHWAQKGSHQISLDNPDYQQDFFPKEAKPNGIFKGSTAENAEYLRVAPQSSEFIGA
Method: as §1, §2, §3
The inhibitory activities of the compounds of the present invention against EGFR (WT) kinase activity were measured.
The materials, the measurement method, and the data analysis method were substantially the same as those shown in the above description regarding “Measurement of EGFR (T790M/L858R) Kinase Inhibitory Activity,” except that a kinase protein prepared by expressing a cytoplasmic domain of human EGFR (WT) with its N-terminus fused to a FLAG tag in insect Sf9 cells using a baculovirus expression system and then purifying it with anti-FLAG antibody agarose (Sigma-Aldrich) was used as the kinase protein, the final concentration of the substrate peptide was 500 nM, and the final concentration of ATP was […]. Finally, the IC50 value (nM) of each compound with respect to EGFR (WT) was determined by data analysis.

[4] = test system: A431 expressing EGFR (WT); assay: Growth inhibition, A431 expressing EGFR (WT); format: cell-based; settings: Homo sapiens, A-431, 72 h; cultured three days, CellTiter-Glo
Method: (§4) (1) A human […] lung cancer cell line NCI-H1975 expressing EGFR (T790M/L858R), (2) a human non-small cell lung cancer cell line HCC827 expressing EGFR (d746-750), and (3) a human epithelioid cancer cell line A431 expressing EGFR (WT) were each suspended in complete growth medium recommended by ATCC. The cell suspensions were seeded in each well of a 384-well flat microplate or a 96-well flat plate, and cultured in an incubator containing 5% carbon dioxide gas at 37° C. for one day. Each compound of the present invention was dissolved in DMSO, and serial dilutions of the test compound were prepared using DMSO (to a concentration 500 times the final concentration). The DMSO solution of the test compound or DMSO was diluted with complete growth medium, and the resulting solution was added to each well of the cell culture plate so that the final concentration of DMSO was 0.2%. Then, the cells were cultured in an incubator containing 5% carbon dioxide gas at 37° C. for three days. The number of cells was measured before the addition of the DMSO solution of the test compound, as well as after addition and culture by using a CellTiter-Glo Assay® (produced by Promega) according to a protocol recommended by Promega.
(§5) For each cell, the cell growth inhibition rates of the wells to which the test compounds at various concentrations were added were calculated by the following formula. Then, the obtained inhibition rates (%) at the respective concentrations were plotted for each test compound, and the GI50 value (nM), which is a test compound concentration at which the cell growth can be inhibited by 50%, was determined using XLfit curve-fitting software (IDBS). • Cell Growth Inhibition Rate (%)=(C−T)/(C−CO)×100 • T: Luminescence intensity of well cultured for three days after addition of the test compound solution • C: Luminescence intensity of well cultured for three days after addition of DMSO • C0: Luminescence intensity of well before addition of the test compound solution

[5] = test system: NCI-H1975 expressing EGFR (T790M/L858R); assay: Growth inhibition, NCI-H1975 expressing EGFR (T790M/L858R); format: cell-based; settings: Homo sapiens, NCI-H1975, 72 h; cultured three days, CellTiter-Glo
Method: as §4, §5

[6] = biological target: T4, EGFR (d746-750/T790M) (Homo sapiens, UniProt P00533, DEL746-750/T790M); assay: EGFR (d746-750/T790M) kinase inhibitory activity; format: biochemical; settings: ATP 1.5 μM
T4 construct: purchased Carna Biosciences, Inc
T4 sequence (P00533 with tags, fused parts or gaps DEL746-750/T790M limits assumed): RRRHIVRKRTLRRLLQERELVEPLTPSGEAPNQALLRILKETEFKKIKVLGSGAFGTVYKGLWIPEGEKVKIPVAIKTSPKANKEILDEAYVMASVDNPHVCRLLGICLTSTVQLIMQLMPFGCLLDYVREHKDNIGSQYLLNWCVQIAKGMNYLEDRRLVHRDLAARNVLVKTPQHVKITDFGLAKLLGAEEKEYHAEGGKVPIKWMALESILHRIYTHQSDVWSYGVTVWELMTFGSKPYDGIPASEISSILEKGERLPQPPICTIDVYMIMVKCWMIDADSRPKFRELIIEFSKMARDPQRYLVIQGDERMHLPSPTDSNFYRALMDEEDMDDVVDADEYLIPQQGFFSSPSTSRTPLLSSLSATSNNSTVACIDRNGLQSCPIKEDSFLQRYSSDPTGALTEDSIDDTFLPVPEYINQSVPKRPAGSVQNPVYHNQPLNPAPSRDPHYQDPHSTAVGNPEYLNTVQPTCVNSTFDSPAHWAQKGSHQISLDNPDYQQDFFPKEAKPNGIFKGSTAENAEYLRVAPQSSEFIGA
Method: as §1, §2, §3
The inhibitory activities of the compounds of the present invention against EGFR (d746-750/T790M) kinase activity were measured.
The materials, the measurement method, and the data analysis method were substantially the same as those shown in the above description regarding “Measurement of EGFR (T790M/L858R) Kinase Inhibitory Activity,” except that a purified recombinant human EGFR (d746-750/T790M) protein purchased from Carna Biosciences, Inc. was used as the kinase protein, and the measurement was performed with an ATP final concentration of 1.5 μM. Finally, the IC50 value (nM) of each compound with respect to EGFR (d746-750/T790M) was determined by data analysis.

[7] = test system: HCC827 expressing EGFR (d746-750); assay: Growth inhibition, HCC827 expressing EGFR (d746-750); format: cell-based; settings: Homo sapiens, HCC827, 72 h; cultured three days, CellTiter-Glo
Method: as §4, §5

[8] = biological target: T5, EGFR (T790M/L858R) (Homo sapiens, UniProt P00533, L858R/T790M); assay: EGFR (T790M/L858R) kinase inhibitory activity; format: biochemical; settings: for pIC50: ATP 1 μM, 25° C. for 120 minutes
T5 construct: purchased Carna Biosciences, Inc
T5 sequence (P00533 25-1210 T790M/L858R): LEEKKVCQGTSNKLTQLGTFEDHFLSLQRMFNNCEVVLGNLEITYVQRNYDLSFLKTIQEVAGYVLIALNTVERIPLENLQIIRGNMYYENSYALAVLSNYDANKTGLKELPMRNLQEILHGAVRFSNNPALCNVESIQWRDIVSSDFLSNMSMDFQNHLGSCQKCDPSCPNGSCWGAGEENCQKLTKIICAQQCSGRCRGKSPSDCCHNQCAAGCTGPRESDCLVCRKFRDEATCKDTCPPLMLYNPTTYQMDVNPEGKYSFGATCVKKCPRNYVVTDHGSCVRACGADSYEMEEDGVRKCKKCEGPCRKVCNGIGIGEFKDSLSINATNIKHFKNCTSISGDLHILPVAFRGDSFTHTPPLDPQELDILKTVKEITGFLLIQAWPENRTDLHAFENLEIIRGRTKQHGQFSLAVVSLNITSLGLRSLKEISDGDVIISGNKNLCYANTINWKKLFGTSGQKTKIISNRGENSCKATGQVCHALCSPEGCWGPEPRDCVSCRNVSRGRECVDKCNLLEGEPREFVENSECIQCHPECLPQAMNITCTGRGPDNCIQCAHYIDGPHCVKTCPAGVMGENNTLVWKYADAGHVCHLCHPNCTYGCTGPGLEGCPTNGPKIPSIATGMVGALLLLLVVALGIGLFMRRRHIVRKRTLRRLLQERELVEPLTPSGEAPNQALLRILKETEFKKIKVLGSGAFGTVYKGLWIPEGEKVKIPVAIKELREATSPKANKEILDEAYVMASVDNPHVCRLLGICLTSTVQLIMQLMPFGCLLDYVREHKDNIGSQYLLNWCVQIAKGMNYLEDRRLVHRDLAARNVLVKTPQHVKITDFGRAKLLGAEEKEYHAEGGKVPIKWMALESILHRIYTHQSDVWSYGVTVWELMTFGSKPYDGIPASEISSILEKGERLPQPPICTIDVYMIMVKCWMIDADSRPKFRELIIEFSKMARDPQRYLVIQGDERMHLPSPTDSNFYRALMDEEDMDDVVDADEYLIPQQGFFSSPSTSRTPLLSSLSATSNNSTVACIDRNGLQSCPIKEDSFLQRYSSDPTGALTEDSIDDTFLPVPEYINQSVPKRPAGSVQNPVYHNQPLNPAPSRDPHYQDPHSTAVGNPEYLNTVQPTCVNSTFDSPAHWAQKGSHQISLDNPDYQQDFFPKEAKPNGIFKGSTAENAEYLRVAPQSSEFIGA
Method: The inhibitory activities of the compounds of the present invention against EGFR (T790M/L858R) kinase activity were measured.
as §1, §2, §3

T1 sequence (P00533 with tags, fused parts or gaps DEL746-750 limits assumed): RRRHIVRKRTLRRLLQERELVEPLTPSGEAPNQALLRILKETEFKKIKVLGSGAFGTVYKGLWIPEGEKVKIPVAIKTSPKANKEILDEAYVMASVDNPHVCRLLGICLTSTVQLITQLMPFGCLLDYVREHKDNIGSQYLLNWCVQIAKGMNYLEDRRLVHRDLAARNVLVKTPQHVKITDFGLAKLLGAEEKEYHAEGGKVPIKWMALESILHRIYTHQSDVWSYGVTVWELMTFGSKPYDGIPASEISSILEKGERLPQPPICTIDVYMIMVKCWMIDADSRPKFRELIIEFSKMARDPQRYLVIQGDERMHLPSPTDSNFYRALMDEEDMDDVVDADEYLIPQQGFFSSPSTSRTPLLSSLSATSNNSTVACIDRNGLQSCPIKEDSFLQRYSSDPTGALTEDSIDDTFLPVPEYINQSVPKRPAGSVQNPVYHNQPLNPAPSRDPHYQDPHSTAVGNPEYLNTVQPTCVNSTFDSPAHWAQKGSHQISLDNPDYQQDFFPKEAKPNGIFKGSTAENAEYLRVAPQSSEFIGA

C=C1c2c(-c3cnc4ccccc4c3)c3c(N)ncnc3n2C[C@H]1NC(=O)C=CC (mixture of isomers) [Example 3, (S)—N-(4-amino-6-methylene-5-(quinolin-3-yl)-7,8-dihydro-6H -pyrimido[5,4-b]pyrrolizin-7-yl)but-2-enamide]
pIC50 [1]: 8.12
pIC50 [2]: 7.82
pIC50 [3]: 6.96
GI50 [4]: > 10000 nM
GI50 [5]: 560 nM
pIC50 [6]: 8.74
GI50 [7]: 16 nM
pIC50 [8]: 8.21

Nc1ncnc2c1c(-c1cccc(NC(=O)c3ccccc3)c1)c1n2CCCC1 [Comparative Example 1, N-(3-(4-amino-6,7,8,9-tetrahydropyrimido[5,4-b]indolizin-5-yl)phenyl)benzamide, reference compound]
inhibitory activity against EGFR kinases (in words) ([8]; summary for EGFR (L858R), (d746-750), (T790M/L858R), (d746-750/T790M), for the comparative compound all EGFR kinases tested): almost no inhibitory activity

C=CC(=O)N[C@@H]1Cn2c(c(-c3cnc4ccccc4c3)c3c(N)ncnc32)C1=C [Example 1, (S)—N-(4-amino-6-methylene-5-(quinolin-3-yl)-7,8-dihydro-6H-pyrimido[5,4-b]pyrrolizin-7-yl)acrylamide]
pIC50 [1]: > 9.82
pIC50 [2]: > 9.30
pIC50 [3]: 9.15
GI50 [4]: 370 nM
GI50 [5]: 9 nM
pIC50 [6]: > 9.82
GI50 [7]: 1.9 nM
pIC50 [8]: > 9.30

C=C(C)C(=O)N[C@@H]1Cn2c(c(-c3cnc4ccccc4c3)c3c(N)ncnc32)C1=C [Example 2, (S)—N-(4-amino-6-methylene-5-(quinolin-3-yl)-7,8-dihydro-6H -pyrimido[5,4-b]pyrrolizin-7-yl)methacrylamide]
pIC50 [1]: 7.11
pIC50 [2]: 6.64
pIC50 [3]: 5.85
GI50 [4]: > 10000 nM
GI50 [5]: 4200 nM
pIC50 [6]: 7.52
GI50 [7]: 780 nM
pIC50 [8]: 7.11

C=CC(=O)N[C@H]1Cn2c(c(-c3cnc4ccccc4c3)c3c(N)ncnc32)C1=C [Example 25, (R)—N-(4-amino-6-methylene-5-(quinolin-3-yl)-7,8-dihydro-6H-pyrimido[5,4-b]pyrrolizin-7-yl)acrylamide]
pIC50 [1]: 7.23
pIC50 [2]: 7.00
GI50 [4]: > 10000 nM
GI50 [5]: 2500 nM
pIC50 [6]: 7.96
GI50 [7]: 260 nM
pIC50 [8]: 7.44

C=CC(=O)N(C)[C@@H]1Cn2c(c(-c3cnc4ccccc4c3)c3c(N)ncnc32)C1=C [Example 26, (S)—N-(4-amino-6-methylene-5-(quinolin-3-yl)-7,8-dihydro-6H-pyrimido[5,4-b]pyrrolizin-7-yl)-N-methylacrylamide]
pIC50 [1]: 8.96
pIC50 [2]: 8.77
GI50 [4]: 4700 nM
GI50 [5]: 150 nM
pIC50 [6]: 9.51
GI50 [7]: 18.4 nM
pIC50 [8]: 9.00

C=CC(=O)N[C@H]1C=Cc2c(-c3cnc4ccccc4c3)c3c(N)ncnc3n2C1 [Example 27, (S)—N-(4-amino-5-(quinolin-3-yl)-8,9-dihydropyrimido[5,4-b]indolizin-8-yl)acrylamide]
pIC50 [1]: 9.42
pIC50 [2]: 9.46
GI50 [4]: 1000 nM
GI50 [5]: 110 nM
pIC50 [6]: 9.60
GI50 [7]: 15 nM
pIC50 [8]: 9.47

C=CC(=O)N[C@H]1C=Cc2c(-c3cnc4ccccc4c3)c3c(N)ncnc3n2CC1 [Example 28, (R)—N-(4-amino-5-(quinolin-3-yl)-9,10-dihydro-8H-pyrimido[5′,4′:4,5]pyrrolo[1,2-a]azepin-8-yl)acrylamide]
pIC50 [1]: 9.57
pIC50 [2]: 9.31
GI50 [4]: 1200 nM
GI50 [5]: 48 nM
pIC50 [6]: > 9.30
GI50 [7]: 14 nM
pIC50 [8]: 9.52

C=CC(=O)N[C@H]1CC(C)c2c(-c3cnc4ccccc4c3)c3c(N)ncnc3n2C1 (stereo partly drawn) [Example 29]
pIC50 [1]: 7.68
pIC50 [2]: 7.72
GI50 [4]: > 10000 nM
GI50 [5]: 1600 nM
pIC50 [6]: 8.08
GI50 [7]: 89 nM
pIC50 [8]: 7.85
